Counter-ions that a name gives are not always drawn. Like-named read-outs stand apart in the source and are kept apart here.
Tests used:
[1] = tested on: photoreceptor cell damage caused by light exposure; conditions: for suppressive effect on photoreceptor cell damage (in words): mouse models of light damage, summary of Table 2; for Suppression rate (%) based on a-wave / Suppression rate (%) based on b-wave: mouse, one hour before light exposure, ERG one day after
Method: After a 0.5% (w/v) tropicamide-0.5% phenylephrine hydrochloride ophthalmic solution was instilled into the eyes of a mouse to cause mydriasis, light damage was induced in the mouse by light exposure (exposure conditions: illuminance level: 5000 Lux, exposure time: 2 hours) with an apparatus for inducing light damage (Sakami Medical Instrument).
Compound A was dissolved in a 1% (w/v) methyl cellulose solution (prepared by dissolving methyl cellulose in purified water) at a concentration of 0.006, 0.02, 0.06 or 0.2 mg/ml, whereby solutions of Compound A were prepared. Each of the solutions of Compound A was orally administered once at a dose of 0.03, 0.1, 0.3 or 1 mg/kg one hour before light exposure. Compound B was also orally administered in the same manner. That is, Compound B was dissolved in a 1% (w/v) methyl cellulose solution at a concentration of 0.02 or 0.2 mg/ml, whereby solutions of Compound B were prepared. Each of the solutions of Compound B was orally administered once at a dose of 0.1 or 1 mg/kg one hour before light exposure. In a vehicle administration group, a 1% (w/v) methyl cellulose solution was administered in the same manner.
One day after light exposure, each mouse was given general anesthesia by intramuscular administration of 2 ml/kg of a mixed solution of a 5% (w/v) ketamine hydrochloride injectable solution, a 2% xylazine hydrochloride injectable solution and physiological saline (7:1:8), and a 0.5% (w/v) tropicamide-0.5% phenylephrine hydrochloride ophthalmic solution was instilled into the eyes to cause mydriasis. Then, the electroretinogram (ERG) was measured using portable ERG & VEP LE-3000 (Tomey Corporation) (measurement conditions: stimulus luminance: 3000 cd/m^2, stimulus duration: 10 msec, background light luminance: 0 cd/m^2), and a- and b-wave amplitudes were calculated from the obtained waveforms. Then, the suppression rate (%) of the drug to be evaluated against the decrease in a- and b-wave amplitudes (photoreceptor cell damage) caused by light exposure was calculated in accordance with Equations 3 and 4. The case number in each administration group was 6 to 8 per group, and the mean value was used for calculating the suppression rate.
Suppression rate against photoreceptor cell damage (%) based on a-wave=(AAZ−AAY)/(AAX−AAY)×100 [Equation 3]
AAX: a-wave amplitude in normal (untreated) group AAY: a-wave amplitude in group with light exposure and vehicle administration AAZ: a-wave amplitude in group with light exposure and drug administration
Suppression rate against photoreceptor cell damage (%) based on b-wave=(ABZ−ABY)/(ABX−ABY)×100 [Equation 4]
ABX: b-wave amplitude in normal (untreated) group ABY: b-wave amplitude in group with light exposure and vehicle administration ABZ: b-wave amplitude in group with light exposure and drug administration

[2] = tested on: thrombin-induced retinal vascular hyperpermeability
Method: A rat was given general anesthesia by intramuscular administration of 1 ml/kg of a mixed solution of a 5% (w/v) ketamine hydrochloride injectable solution and a 2% xylazine hydrochloride injectable solution (7:1), and a 0.5% (w/v) tropicamide-0.5% phenylephrine hydrochloride ophthalmic solution was instilled into the eyes to cause mydriasis. Then, 5 μl of thrombin (600 U/mL) was injected into the vitreous body using a 33-gauge needle so as not to hurt the lens and retina. To a rat in a normal group, PBS (phosphate buffer) was injected instead of thrombin.
In a vehicle administration group, a 1% (w/v) methyl cellulose solution was administered in the same manner.
At 24 hours after intravitreal injection of thrombin, each rat was killed by exsanguination, and then, the eyeball of the rat was enucleated while avoiding contamination with blood. […] The collected vitreous body was appropriately diluted with purified water and the protein concentration was determined by the Bradford method. The thus determined protein concentration in the vitreous body was used as an index of retinal vascular permeability. Then, the suppression rate (%) of the drug to be evaluated against the retinal vascular hyperpermeability induced by thrombin was calculated in accordance with Equation 5. […]

[3] = tested on: laser-induced choroidal neovascularization; test: rat models of krypton laser-induced choroidal neovascularization; type: in vivo; conditions: for inhibitory effect on neovascularization in the choroid (in words): rat models of laser-induced choroidal neovascularization, summary of Table 1; for Suppression rate (%) (inhibition rate of choroidal neovascularization incidence): rat, day 7 after photocoagulation, vs vehicle
Method: The photocoagulation was performed in a posterior fundus at eight spots per eye sparsely by focusing on the retinal deep layer avoiding thick retinal blood vessels (coagulation conditions: spot size: 100 μm, output: 100 mW, coagulation time: 0.1 sec). After the photocoagulation, the ocular fundus was photographed, and the site where the laser was irradiated was confirmed.
Each of the solutions of Compound A at such concentrations was orally administered once daily at a dose of 0.3 mg/kg or 1 mg/kg starting from the day of photocoagulation surgery for 7 days including the day of surgery. […] Each of the solutions of Compound B at such concentrations was orally administered once daily at a dose of 0.3 mg/kg or 1 mg/kg starting from the day of photocoagulation surgery for 7 days including the day of surgery. On the other hand, Compound C was dissolved in PBS (phosphate buffer) at a concentration of 100 mg/ml, and the resulting solution of Compound C was intraperitoneally administered once daily at a dose of 100 mg/kg starting from the day of photocoagulation surgery for […] the day of surgery.
In the fluorescence fundus photography, a spot where fluorescence leakage was not observed (absence of neovascularization) was judged as negative, and a spot where fluorescence leakage was observed was judged as positive (presence of neovascularization). When there are two photocoagulation sites where a little fluorescence leakage was observed, they were judged as positive (presence of neovascularization). […] The case number in each administration group is 7 to 8.
Choroidal neovascularization incidence rate (%)=(Number of positive spots/total number of photocoagulation sites)×100 [Equation 1]
Inhibition rate (%)=(A0−Ax)/A0×100 [Equation 2]
A0: Choroidal neovascularization incidence rate of vehicle administration group Ax: Choroidal neovascularization incidence rate of drug administration group

[4] = 0.3 mg/kg orally once daily for 7 days
[5] = 1 mg/kg orally once daily for 7 days

Compound	suppressive effect on photoreceptor cell damage (in words) [1]	Suppression rate (%) based on a-wave ([1]; 0.03 mg/kg orally once) [%]	Suppression rate (%) based on b-wave ([1]; 0.03 mg/kg orally once) [%]	Suppression rate (%) based on a-wave ([1]; 0.1 mg/kg orally once) [%]	Suppression rate (%) based on b-wave ([1]; 0.1 mg/kg orally once) [%]	Suppression rate (%) based on a-wave ([1]; 0.3 mg/kg orally once) [%]	Suppression rate (%) based on b-wave ([1]; 0.3 mg/kg orally once) [%]	Suppression rate (%) based on a-wave ([1]; 1 mg/kg orally once) [%]	Suppression rate (%) based on b-wave ([1]; 1 mg/kg orally once) [%]	suppressive effect on retinal vascular hyperpermeability (in words) ([2]; rat models of thrombin-induced retinal vascular hyperpermeability, summary of Table 3)	Suppression rate (%) against retinal vascular permeability ([2]; rat, 1 mg/kg orally immediately before and 20 hours after intravitreal thrombin, vitreous protein at 24 hours) [%]	inhibitory effect on neovascularization in the choroid (in words) [3]	Suppression rate (%) (inhibition rate of choroidal neovascularization incidence) [3, 4]	Suppression rate (%) (inhibition rate of choroidal neovascularization incidence) [3, 5]	Suppression rate (%) (inhibition rate of choroidal neovascularization incidence) ([3]; 100 mg/kg intraperitoneally once daily)
CCCN[C@H]1CCc2nc(N)sc2C1 [Compound A, pramipexole hydrochloride]	significantly suppresses photoreceptor cell damage	41.4	49.2	47.3	44.1	70.0	72.1	102.0	92.1	excellent suppressive effect on retinal vascular hyperpermeability	9.9	inhibits choroidal neovascularization	60.9	60.9	
CC(C)C[C@H]1C(=O)N2CCC[C@H]2[C@]2(O)O[C@](NC(=O)[C@@H]3C=C4c5cccc6[nH]c(Br)c(c56)C[C@H]4N(C)C3)(C(C)C)C(=O)N12 [Compound B, bromocriptine mesilate]	hardly or not at all observed			0.2	−3.8			4.8	4.9			hardly or not at all observed	−2.1	4.1	
Cl.NCCc1ccc(O)c(O)c1 [Compound C, dopamine hydrochloride]												hardly or not at all observed			11.8
